# Test results taken from patent US9073974B2, “RGD-containing cyclic peptides” (The Regents of the University of California, priority 2009, dated 2015).
# “Also recorded” adds a separate entry of the source. Bridge positions count the residues as written; N and C are the ends. Square brackets hold non-standard residues; d marks the D form. Peptide text beside a SMILES is read from it.
# Key:
# [1] = target: T1, α3 (Homo sapiens, UniProt P05556+P26006); test: Staining of α3 transfected K562 cells with biotinylated peptide and streptavidin-PE (flow cytometry); type: binding; settings: 1 μM LXW7-Bio, Streptavidin-PE
# T1 construct: expressed in transfected cells; host or cells: K562 (gift of Dr. Yoshikazu Takada)
# Description: (§1) After one time wash, samples were tested. […] Then the specific binding equaled to substraction of nonspecific binding from total binding and Kds were analyzed.
# (§2) To test the specificity of LXW7, LXW7 was prepared in biotinylated form and incubated with α1, α2, α3, α4, α6, α9, αIIbβ3 and αvβ3 transfected K562 and parent K562 cells (α5β1), followed by incubation with streptavidin-PE. […] The binding affinities of LXW7 and these cyclic RGD pentapeptides against αvβ3 integrin were compared based on their ability to inhibit FITC-Echistatin binding with αvβ3-K562.
# [2] = target: T2, αvβ3 integrin (Homo sapiens, UniProt P05106+P06756); test: Equilibrium binding and antibody blocking of LXW7-Bio on A375M melanoma cells (flow cytometry); design: host or cells: A375M (A4); U-87MG (A5)
# T2 sequence (P06756 31-889 limits assumed): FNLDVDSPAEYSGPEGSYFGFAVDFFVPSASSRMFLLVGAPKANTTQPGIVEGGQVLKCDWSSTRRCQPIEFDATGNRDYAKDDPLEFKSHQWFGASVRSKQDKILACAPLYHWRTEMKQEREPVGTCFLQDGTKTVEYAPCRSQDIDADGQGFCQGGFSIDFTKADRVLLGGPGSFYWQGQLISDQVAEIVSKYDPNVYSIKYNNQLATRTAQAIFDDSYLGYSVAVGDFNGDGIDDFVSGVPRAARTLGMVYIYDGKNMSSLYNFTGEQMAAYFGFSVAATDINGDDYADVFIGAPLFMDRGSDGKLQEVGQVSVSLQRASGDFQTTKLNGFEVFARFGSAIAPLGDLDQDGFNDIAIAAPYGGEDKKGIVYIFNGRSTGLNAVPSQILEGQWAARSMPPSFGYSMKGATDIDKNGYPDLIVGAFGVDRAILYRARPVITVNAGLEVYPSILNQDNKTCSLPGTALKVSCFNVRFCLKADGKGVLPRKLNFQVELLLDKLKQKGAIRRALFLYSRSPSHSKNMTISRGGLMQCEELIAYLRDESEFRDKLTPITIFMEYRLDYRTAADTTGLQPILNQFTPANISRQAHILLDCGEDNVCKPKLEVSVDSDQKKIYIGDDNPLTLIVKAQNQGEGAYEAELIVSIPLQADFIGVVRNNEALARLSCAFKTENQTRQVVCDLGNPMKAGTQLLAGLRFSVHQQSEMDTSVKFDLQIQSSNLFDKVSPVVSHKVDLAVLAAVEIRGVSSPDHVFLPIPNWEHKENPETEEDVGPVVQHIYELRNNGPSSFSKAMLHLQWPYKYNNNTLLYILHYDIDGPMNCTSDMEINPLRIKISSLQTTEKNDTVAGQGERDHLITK
# T2 sequence (P06756 891-1048 partner limits assumed): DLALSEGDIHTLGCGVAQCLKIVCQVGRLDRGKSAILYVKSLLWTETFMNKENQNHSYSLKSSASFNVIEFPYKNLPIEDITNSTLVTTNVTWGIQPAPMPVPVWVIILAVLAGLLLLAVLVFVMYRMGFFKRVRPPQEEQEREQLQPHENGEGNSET
# T2 sequence (P05106 27-788): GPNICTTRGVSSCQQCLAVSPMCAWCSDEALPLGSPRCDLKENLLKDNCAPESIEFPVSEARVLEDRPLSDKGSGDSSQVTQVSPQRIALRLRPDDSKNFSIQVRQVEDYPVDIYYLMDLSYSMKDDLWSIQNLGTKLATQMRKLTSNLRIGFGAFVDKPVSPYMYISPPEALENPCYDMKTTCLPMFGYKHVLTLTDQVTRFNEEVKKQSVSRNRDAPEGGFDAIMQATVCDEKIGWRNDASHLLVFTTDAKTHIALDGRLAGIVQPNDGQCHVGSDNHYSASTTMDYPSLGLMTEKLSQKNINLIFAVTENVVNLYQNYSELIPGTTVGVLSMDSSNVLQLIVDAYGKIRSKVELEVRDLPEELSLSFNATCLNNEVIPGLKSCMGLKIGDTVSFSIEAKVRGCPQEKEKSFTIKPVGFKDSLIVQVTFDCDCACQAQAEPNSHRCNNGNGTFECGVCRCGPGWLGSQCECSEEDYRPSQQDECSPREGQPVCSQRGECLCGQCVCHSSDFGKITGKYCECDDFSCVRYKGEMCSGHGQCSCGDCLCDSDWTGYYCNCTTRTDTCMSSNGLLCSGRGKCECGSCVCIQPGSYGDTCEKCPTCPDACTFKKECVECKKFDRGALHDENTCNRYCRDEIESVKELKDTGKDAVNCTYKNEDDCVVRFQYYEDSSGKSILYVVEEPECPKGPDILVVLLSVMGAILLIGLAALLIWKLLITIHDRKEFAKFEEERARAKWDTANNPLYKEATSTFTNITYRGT
# Description: as §1
# (§3) The samples were analyzed with Coulter XL-MCL flow cytometry. The histogram and mean fluorescence intensity (MFI) were determined. The apparent Kd, IC50 were calculated using Graph Prism software (≦www.graphpad.com≧).
# [3] = target: T2, αvβ3 integrin; test: Equilibrium binding of LXW7-Bio to αvβ3-K562 cells (flow cytometry); design: expressed in transfected cells; host or cells: K562 (gift of Dr. Yoshikazu Takada, UC Davis)
# Description: as §1, §3
# [4] = tested on: U-87 MG xenograft; test: In vivo and ex vivo near infra red fluorescent imaging, U-87 MG xenograft; design: species or system nude mice; settings: complex of Streptavidin-Cy5.5 with biotinylated peptide, 6 hrs after tail vein injection
# Description: Animal studies were performed according to a protocol approved by IACUC of the University of California, Davis.
# Animals were placed on a sheet of transparency in different position. […] Images were captured with a CCD camera set at F stop=0, FOV=150, and FP=0. Six hours post injection of imaging complex, the mice were conducted in vivo imaging, then were sacrificed and organs were excised for ex vivo imaging.
# [5] = target: T3, α4 (Homo sapiens, UniProt P05556+P13612); test: Staining of α4 transfected K562 cells with biotinylated peptide and streptavidin-PE (flow cytometry); type: binding; settings: 1 μM LXW7-Bio, Streptavidin-PE
# T3 construct: expressed in transfected cells; host or cells: K562 (gift of Dr. Yoshikazu Takada)
# Description: as §1, §2
# [6] = target: T4, α1 (Homo sapiens, UniProt P56199); test: Staining of α1 transfected K562 cells with biotinylated peptide and streptavidin-PE (flow cytometry); type: binding; settings: 1 μM LXW7-Bio, Streptavidin-PE
# T4 construct: expressed in transfected cells; host or cells: K562 (gift of Dr. Yoshikazu Takada)
# Description: as §1, §2
# [7] = target: T5, α6 (Homo sapiens, UniProt P05556+P23229); test: Staining of α6 transfected K562 cells with biotinylated peptide and streptavidin-PE (flow cytometry); type: binding; settings: 1 μM LXW7-Bio, Streptavidin-PE
# T5 construct: expressed in transfected cells; host or cells: K562 (gift of Dr. Yoshikazu Takada)
# Description: as §1, §2
# [8] = target: T6, α2 (Homo sapiens, UniProt P17301); test: Staining of α2 transfected K562 cells with biotinylated peptide and streptavidin-PE (flow cytometry); type: binding; settings: 1 μM LXW7-Bio, Streptavidin-PE
# T6 construct: expressed in transfected cells; host or cells: K562 (gift of Dr. Yoshikazu Takada)
# Description: as §1, §2
# [9] = target: T7, α5β1 (Homo sapiens, UniProt P05556+P08648); test: Staining of parent K562 cells (α5β1) with biotinylated peptide and streptavidin-PE (flow cytometry); type: binding; settings: 1 μM biotinylated peptide, Streptavidin-PE
# T7 construct: host or cells: parent (non-transfected) K562
# T7 sequence (P08648 42-894 limits assumed): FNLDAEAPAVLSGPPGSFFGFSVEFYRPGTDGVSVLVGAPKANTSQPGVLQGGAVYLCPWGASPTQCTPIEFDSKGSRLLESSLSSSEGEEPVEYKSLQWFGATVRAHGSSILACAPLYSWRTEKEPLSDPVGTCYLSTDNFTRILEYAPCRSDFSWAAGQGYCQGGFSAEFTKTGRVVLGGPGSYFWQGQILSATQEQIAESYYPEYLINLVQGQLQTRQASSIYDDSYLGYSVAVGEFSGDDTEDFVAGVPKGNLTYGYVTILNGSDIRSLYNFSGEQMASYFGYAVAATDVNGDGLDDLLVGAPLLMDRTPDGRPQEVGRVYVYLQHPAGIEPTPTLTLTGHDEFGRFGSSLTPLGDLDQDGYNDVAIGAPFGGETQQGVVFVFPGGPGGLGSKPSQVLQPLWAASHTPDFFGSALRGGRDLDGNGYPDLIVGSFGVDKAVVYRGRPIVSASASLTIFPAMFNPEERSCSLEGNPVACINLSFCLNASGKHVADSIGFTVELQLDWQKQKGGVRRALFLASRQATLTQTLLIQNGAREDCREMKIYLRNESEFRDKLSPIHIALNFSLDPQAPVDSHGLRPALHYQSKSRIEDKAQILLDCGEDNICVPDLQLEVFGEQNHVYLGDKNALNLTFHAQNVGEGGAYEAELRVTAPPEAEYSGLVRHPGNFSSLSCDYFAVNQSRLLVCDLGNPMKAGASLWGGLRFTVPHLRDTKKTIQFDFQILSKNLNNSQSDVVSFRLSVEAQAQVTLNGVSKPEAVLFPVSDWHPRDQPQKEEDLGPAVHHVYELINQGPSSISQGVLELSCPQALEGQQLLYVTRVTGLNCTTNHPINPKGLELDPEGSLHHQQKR
# T7 sequence (P08648 895-1049 partner limits assumed): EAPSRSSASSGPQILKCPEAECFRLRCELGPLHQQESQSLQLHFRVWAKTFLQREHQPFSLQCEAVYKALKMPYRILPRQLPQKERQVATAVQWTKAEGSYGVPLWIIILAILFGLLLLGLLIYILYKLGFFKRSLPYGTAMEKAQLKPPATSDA
# T7 sequence (P05556 21-798): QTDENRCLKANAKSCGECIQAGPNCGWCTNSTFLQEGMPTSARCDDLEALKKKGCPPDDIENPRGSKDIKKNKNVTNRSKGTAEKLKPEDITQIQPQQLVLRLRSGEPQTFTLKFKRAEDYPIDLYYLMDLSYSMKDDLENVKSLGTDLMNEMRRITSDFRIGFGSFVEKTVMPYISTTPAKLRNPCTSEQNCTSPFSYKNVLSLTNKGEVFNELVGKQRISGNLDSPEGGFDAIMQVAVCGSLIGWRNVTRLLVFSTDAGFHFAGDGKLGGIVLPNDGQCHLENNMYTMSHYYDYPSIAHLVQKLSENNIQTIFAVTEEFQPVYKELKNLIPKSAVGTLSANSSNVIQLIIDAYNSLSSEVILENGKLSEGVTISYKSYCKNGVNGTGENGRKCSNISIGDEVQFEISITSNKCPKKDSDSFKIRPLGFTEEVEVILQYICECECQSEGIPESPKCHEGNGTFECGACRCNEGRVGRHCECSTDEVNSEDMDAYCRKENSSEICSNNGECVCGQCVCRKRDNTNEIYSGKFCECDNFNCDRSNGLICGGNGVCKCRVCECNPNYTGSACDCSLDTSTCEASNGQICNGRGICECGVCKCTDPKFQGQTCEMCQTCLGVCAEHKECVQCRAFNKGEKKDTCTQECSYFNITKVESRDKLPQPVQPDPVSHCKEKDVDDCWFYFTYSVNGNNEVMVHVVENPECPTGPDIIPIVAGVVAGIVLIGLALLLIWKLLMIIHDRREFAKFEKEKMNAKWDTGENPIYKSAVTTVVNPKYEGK
# Description: as §1, §2
# [10] = target: T2, αvβ3 integrin; test: Inhibition of biotinylated LXW7 binding to αvβ3-K562 cells (flow cytometry); design: expressed in transfected cells; host or cells: K562 (gift of Dr. Yoshikazu Takada, UC Davis); settings: LXW9-92: inhibiting the binding of biotinylated LXW7 against αvβ3-K562 cells, LXW7 as internal reference
# Description: The apparent IC50 were calculated using Graph Prism software (≦www.graphpad.com≧).
# as §3
# [11] = target: T8, αvβ3 (Homo sapiens, UniProt P05106+P06756); test: Staining of αvβ3 transfected K562 cells with biotinylated peptide and streptavidin-PE (flow cytometry); type: binding; settings: 1 μM biotinylated peptide, Streptavidin-PE
# T8 construct: expressed in transfected cells; host or cells: K562 (gift of Dr. Yoshikazu Takada, UC Davis)
# T8 sequence (P06756 31-889 limits assumed): as the sequence (P06756 31-889 limits assumed) above
# T8 sequence (P06756 891-1048 partner limits assumed): as the sequence (P06756 891-1048 partner limits assumed) above
# T8 sequence (P05106 27-788): as the sequence (P05106 27-788) above
# Description: as §1, §2
# [12] = target: T2, αvβ3 integrin; test: Equilibrium binding and antibody blocking of LXW7-Bio on U-87 MG glioblastoma cells (flow cytometry); design: host or cells: U-87MG (A5)
# Description: as §1, §3
# [13] = target: T2, αvβ3 integrin; test: Inhibition of FITC-Echistatin binding to αvβ3-K562 cells (flow cytometry); design: expressed in transfected cells; host or cells: K562 (gift of Dr. Yoshikazu Takada, UC Davis)
# Description: as §3
# [14] = target: T9, αIIbβ3 (Homo sapiens, UniProt P05106+P08514); test: Staining of αIIbβ3 transfected K562 cells with biotinylated peptide and streptavidin-PE (flow cytometry); type: binding; settings: 1 μM biotinylated peptide, Streptavidin-PE
# T9 construct: expressed in transfected cells; host or cells: K562 (gift of Dr. Jennifer Cochran and Dr. Scott D. Blystone)
# Description: as §1, §2
# [15] = target: T10, α9 (Homo sapiens, UniProt P05556+Q13797); test: Staining of α9 transfected K562 cells with biotinylated peptide and streptavidin-PE (flow cytometry); type: binding; settings: 1 μM LXW7-Bio, Streptavidin-PE
# T10 construct: expressed in transfected cells; host or cells: K562 (gift of Dr. Yoshikazu Takada)
# T10 sequence (Q13797 30-1035): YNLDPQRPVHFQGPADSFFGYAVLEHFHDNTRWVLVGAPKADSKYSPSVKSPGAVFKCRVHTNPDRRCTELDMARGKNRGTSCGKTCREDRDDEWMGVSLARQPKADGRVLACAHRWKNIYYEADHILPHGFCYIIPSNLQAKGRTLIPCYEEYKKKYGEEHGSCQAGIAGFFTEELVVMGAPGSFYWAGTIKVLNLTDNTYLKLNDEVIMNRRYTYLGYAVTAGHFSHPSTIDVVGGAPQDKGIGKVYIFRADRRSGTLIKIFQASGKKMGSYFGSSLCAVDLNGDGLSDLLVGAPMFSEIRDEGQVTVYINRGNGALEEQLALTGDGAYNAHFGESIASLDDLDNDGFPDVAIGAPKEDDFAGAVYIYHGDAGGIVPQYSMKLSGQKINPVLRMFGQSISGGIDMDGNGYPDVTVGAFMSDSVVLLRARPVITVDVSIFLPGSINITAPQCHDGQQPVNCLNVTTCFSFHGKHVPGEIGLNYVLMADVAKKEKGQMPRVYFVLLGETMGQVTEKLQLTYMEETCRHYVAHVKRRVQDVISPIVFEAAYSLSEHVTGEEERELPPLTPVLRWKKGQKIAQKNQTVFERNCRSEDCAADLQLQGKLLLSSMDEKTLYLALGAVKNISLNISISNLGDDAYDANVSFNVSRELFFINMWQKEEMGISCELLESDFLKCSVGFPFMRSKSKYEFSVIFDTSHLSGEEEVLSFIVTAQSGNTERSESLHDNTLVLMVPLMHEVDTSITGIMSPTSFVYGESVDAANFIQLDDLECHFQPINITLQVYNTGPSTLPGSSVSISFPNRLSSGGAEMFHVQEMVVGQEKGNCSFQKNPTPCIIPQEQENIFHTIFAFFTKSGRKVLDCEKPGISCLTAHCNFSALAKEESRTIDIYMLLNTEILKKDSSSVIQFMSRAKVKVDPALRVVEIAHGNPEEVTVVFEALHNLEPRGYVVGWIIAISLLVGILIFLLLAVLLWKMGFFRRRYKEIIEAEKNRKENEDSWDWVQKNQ
# T10 sequence (P05556 21-798): as the sequence (P05556 21-798) above
# Description: as §1, §2
# [16] = 10 μg LM609 premixed with 1 μM LXW7-Bio
structure (smiles),measurement,setting,value
"CC(C)[C@H]1NC(=O)[C@@H](CC(=O)O)NC(=O)[C@H](CC(=O)O)NC(=O)CNC(=O)[C@H](CCCNC(=N)N)NC(=O)CNC(=O)[C@H](N)CSSC[C@H](C(N)=O)NC1=O [LXW7, cGRGDdvc] (H-[dC]GRGD[dD][dV][dC]-NH2; disulfide 1-8)",binding with α3,[1],no binding; also recorded: not at all
same,binding to A375M cells in presence of anti-αvβ3 antibody (LM609),[2]; [16],markedly blocked
same,Bmax (A.U),[2]; A375M,71 ± 4 A.U
same,Kd,[2]; A375M,89 ± 8 nM
same,Bmax (A.U),[3],1394 ± 57 A.U
same,Kd,[3],76 ± 10 nM
same,"liver uptake, ex vivo imaging",[4],low
same,"tumor uptake, ex vivo imaging",[4],high
same,binding with α4,[5],no binding
same,binding with α1,[6],no binding; also recorded: not at all
same,binding with α6,[7],no binding; also recorded: not at all
same,binding with α2,[8],no binding; also recorded: not at all
same,binding with α5β1 (α5),[9],no binding; also recorded: not at all
same,IC50,[10],590 nM
same,binding with αvβ3,[11],strong positive binding; also recorded: strongly bound
same,binding to U-87 MG cells in presence of anti-αvβ3 antibody (LM609),[12]; [16],markedly blocked
same,Bmax (A.U),[12]; U-87 MG,86 ± 4 A.U
same,Kd,[12]; U-87 MG,72 ± 15 nM
same,"binding strength to αvβ3 integrin, biotinylated versus non-biotinylated, in words",[13],near identical binding strength
same,IC50,"[13]; LXW1-8: inhibition of binding of FITC-Echistatin against αvβ3-K562, class symbols, read-out: IC50",< 1000 nM
same,binding with αIIbβ3,[14],weak cross-reaction; also recorded: weakly
same,binding with α9,[15],no binding; also recorded: not at all
